# Assay: Viscosity measurement of vitamin E, MCT and binary blends
# Type: physicochemical
# Settings: 23 °C
# Description: Viscosity of vitamin E, MCT, and their binary mixtures was measured using an advanced rheometer from TA Instruments Ltd, New Castle, Del. model number AR 2000. A cone and plate geometry was used with a steel plate radius of 40 mm and a cone angle of 2°. The gap between the cone and plate geometry was set at 100 μm. Rheological measurements were made at 23° C. The rheometer was fitted with a Peltier temperature control system, which was monitored during the experiments. For each test, approximately 1 g of vitamin E, MCT, or their binary mixtures was placed between the plates. Preliminary studies were conducted to optimize instrument parameters. Once the system was optimized, a continuous ramp method was used. The shear stress was measured at varying shear rates from 1 to 100 s−1 for a period of 5 minutes. All rheological measurements were carried out in triplicates. Data were analyzed using rheology software namely TA Rheology Advantage software, Version 2.3.
# The viscosity of the blends decreased from a high of 3700 mPa·s for vitamin E alone to a low of 27 mPa·s, which is the viscosity of pure MCT. […] Therefore, two levels of vitamin E loading in the emulsion were evaluated in this study representing a high viscosity system at a 70/30 ratio and a low viscosity system at a 30/70 ratio of vitamin E to MCT. […]
substance,measurement,value
(±)-α-Tocopherol [vitamin E],viscosity,3700 mPa·s
